In a melting point compilation (Tetko et al.; mined from patent text by program, amines drawn as free bases though some values may be those of a salt):

| SMILES | melting point |
| --- | --- |
| COc1ccc2cc(CC(=O)N3CC=C(c4cccc(C(F)(F)F)c4)CC3)ccc2c1 | 102 to 105 °C |
| O=C(NS(=O)(=O)c1ccccc1-c1ccccc1)Oc1ccccc1 | 114 to 117 °C |
| CN(C)C(=O)CNC(=O)c1ccc(-c2ccc3nnn(Cc4ccc5ncccc5c4)c3n2)cc1F | 177 to 179 °C |
| O=C(NCc1ccc(F)cc1)c1nc2n(c(=O)c1OCc1ccccc1)CCN2c1ccccc1 | 199 to 200 °C |
| CC12CCC(O)CC1CCC1C2C(=NO)CC2(C)C1CCC21OCCO1 (configuration not stated) | 158 to 159 °C |
| COc1cccc(CC(=O)O)c1OCCCc1cn(-c2ccc(C(F)(F)F)nn2)nc1C(C)C | 92 to 93 °C |
| CN1CC(CCn2ccnc2)Oc2ncccc2C1=O (configuration not stated) | 150 to 152 °C |
| CCOc1nc(=O)n(C(=O)NC(Cl)=C(Cl)Cl)s1 | 123 °C |
| O=C(O)CCc1cc2c(Cl)c(Cl)ccc2n1S(=O)(=O)c1ccccc1 | 220 °C |
| CN(C)S(=O)(=O)NCc1ccc(C(c2cc(F)ccc2F)S(=O)(=O)c2ccc(Cl)cc2)nc1 (configuration not stated) | 177 to 178 °C |
| c1ccc(CN2CCCC(c3ncc(-c4cnc(-c5ccccc5)nc4)[nH]3)C2)cc1 (configuration not stated) | 179 °C |
| COc1cc(CCCCCC2OCCO2)ccc1OCc1nc(-c2ccccc2)oc1C | 81 to 82 °C |
| COc1ccc(C#N)cc1C=O | 115 to 118 °C |
| COc1ccc(CN2C(=O)C(C)(c3cc(N(C)C(=O)C4CCCN4C(C)=O)ccc3Cl)c3cc(Cl)ccc32)c(OC)c1 (configuration not stated) | 74 °C |
| CCOC(=O)C1=C(C(OCC)OCC)NC(C)=C(C(=O)OCCO)C1c1cccc([N+](=O)[O-])c1 (configuration not stated) | 98 to 100 °C |
| CC(C)(C)c1cc(SC(Sc2cc(C(C)(C)C)c(O)c(C(C)(C)C)c2)Sc2cc(C(C)(C)C)c(O)c(C(C)(C)C)c2)cc(C(C)(C)C)c1O | 217 to 220 °C |
| CCOC(=O)c1ccc(NC(=O)C(C)CS)nc1 (configuration not stated) | 58 to 61 °C |
| COC(=O)C(Cc1ccc(OCc2nc3ccc(Oc4ccc(C56CC7CC(CC(C7)C5)C6)cc4)cc3n2C)cc1)OCc1ccc(F)cc1 (configuration not stated) | 118 to 120 °C |
| Cc1c(-c2ccccc2)on(CC(O)CCl)c1=O (configuration not stated) | 82 to 83 °C |
| COC(=O)c1cccc2c(C(F)(F)F)c(OC)ccc12 | 79 to 80 °C |
| N#Cc1ccc(-c2ccc(S(=O)(=O)CC(CSc3ccccc3)C(=O)O)cc2)cc1 (configuration not stated) | 243 to 247 °C |
| CN(C)c1ccc(N(C)C(=O)Cn2c(-c3ccc(Cl)cc3)nc3cccnc32)cc1 | 152 to 155 °C |
| N#CCCCNc1cccc(/C=C/c2nc3ccccc3s2)c1 | 97 to 98 °C |
| N#Cc1ccc2c(c1)OCC21C(=O)N(Cc2ccc3c(c2)OCCO3)c2ccccc21 (configuration not stated) | 181 to 183 °C |
| C#CCOc1cc(-c2ccc(S(C)(=O)=O)cc2)c(-c2ccc(F)cc2)c(C(F)(F)F)n1 | 138 to 139 °C |

| SMILES | melting point |
| --- | --- |
| CNC(=N)Nc1c(Cl)cccc1Cl | 140 °C |
| CC(C)(c1ccccc1)N1CC(O)=C(c2ccccc2)C1=O | 206 to 208 °C |
| O=C1CN(c2ccccc2)C(=S)N1c1ccccc1 | 214 °C |
| O=C(O)C[C@H](C(=O)N[C@H](CO)Cc1ccccc1)n1cc(-c2ccc(-c3ccccc3)cc2)cn1 | 154 to 159 °C |
| O=c1c2ccc(/C=C/c3ccc(O)cc3)cc2cnn1-c1ccccn1 | 272 °C |
| COc1ccc2c(c1)OC(CNCCCOc1ccc3c(=O)ccoc3c1)CO2 (configuration not stated) | 155 to 157 °C |
| COc1ccc(C=Cc2cc(I)c(OC)c(OC)c2)cc1O | 92 to 94 °C |
| FC(F)(F)Oc1ccc(C=CC(C=Cc2ccc(OC(F)(F)F)cc2)=NNC2=NCCCN2)cc1 | 140 to 142 °C |
| O=c1[nH][nH]c(=O)c2c(O)c3ccc(I)cc3nc12 | 243 to 244 °C |
| CCOCc1nc2c(N)nc3ccccc3c2n1CC(C)(C)N | 161 to 162 °C |
| O=C1C(=O)c2ccccc2C2=C1SCC1(CCN(Cc3ccc(F)cc3)CC1)O2 | 104 to 106 °C |
| COc1ccc(NC(C)=O)cc1NC(=O)NC(=O)c1cc(F)c(F)cc1Cl | 225 to 228 °C |
| O=C(O)CCc1cn(Cc2ccc(OCc3csc(-c4ccccc4)n3)cc2)nc1-c1cccs1 | 133 to 134 °C |
| CN1C(=O)[C@@](NC(=O)Nc2cccc(Nc3nnn[nH]3)c2)(C2CCCCC2)N=Cc2ccccc21 | 190 to 193 °C |
| CC(C)OC(=O)C(C(=O)c1ccc2c(c1)OCO2)=C1SC=CS1 | 136 to 138 °C |
| O=C(O)c1ccc(NN=C2CCCC2)cc1 | 250 to 253 °C |
| CS(=O)CCc1nc2nc[nH]c2c2nc(-c3ccc(-c4ccccc4)cc3)nn12 (configuration not stated) | 188 °C |
| CN1CCN(c2nc3c(cc2F)c(=O)c(C(=O)O)cn3CCF)CC1 | 224 to 226 °C |
| CC(=O)C(=Cc1cccnc1)C(C)=O | 52 to 57 °C |
| CNCc1ccc([C@H]2CC[C@H](OC(=O)Cc3ccc(Cl)cc3)CC2)cc1 | 65 to 67 °C |
| COc1ccc(Cn2c(=O)[nH]c3ncccc3c2=O)cc1 | 272 to 273 °C |
| Cc1ccc(-c2cccs2)cc1C | 49 to 51 °C |
| COCCOc1ccc2c(C3C(=O)Nc4ccc(C#N)cc43)nccc2c1 (configuration not stated) | 214 to 219 °C |
| CCNC(=S)NCCSCc1[nH]cnc1C | 140 to 141 °C |
| COc1ccc(-c2nc3cnncc3[nH]2)c(N(C)C)c1 | 226 °C |

| SMILES | melting point |
| --- | --- |
| CC(=O)N1CCC(C(=NNc2ccccc2)c2ccc(Br)cc2F)CC1 | 174 to 176 °C |
| COc1cc(/C=C/C(=O)Nc2ccccc2C(=O)O)ccc1OCc1cccnc1 | 245 to 251 °C |
| Cc1ccc(OCc2nc(N)c3nccnc3n2)cc1 | 225 to 227 °C |
| CC(C)Oc1cc(Oc2ccc(C(F)(F)F)cn2)ccc1CCCOc1cc(CCC(=O)O)n(C)n1 | 128 to 130 °C |
| CC(=O)OC(c1ccccc1S(N)(=O)=O)C(C)F (configuration not stated) | 105 to 107 °C |
| CSc1ncc(Cl)cc1C#N | 147 to 149 °C |
| NC(=O)c1ccc(-c2ccc(-c3ccn(C(CC(=O)OCc4ccccc4)C(=O)NC(CO)Cc4ccccc4)c3)cc2)cc1 (configuration not stated) | 192 to 194 °C |
| COc1ccc2[nH]cc(/C=C/c3cc(/C=C/c4ccc(OCc5ccccn5)cc4OC)[nH]n3)c2c1 | 189 to 195 °C |
| COCc1cc([N+](=O)[O-])ccc1C | 45 to 49 °C |
| CC=CCn1c(C)c(C)c2cnnc(OCc3ccc(Cl)cc3F)c21 | 106 to 109 °C |
| COc1c(Cl)cc(NC(=O)OCCCl)c(OC)c1NC(=O)OCCCl | 87 °C |
| O=C(Nc1ccc(Br)cn1)[NH+]([O-])C(=O)c1c(Cl)cccc1Cl (configuration not stated) | 230 to 235 °C |
| COC(=O)CC1=c2ccccc2=Cc2ccccc2O1 | 59 to 63 °C |
| CCc1nn(C2CCCC2)c2cc(C(=O)Nc3ccc(C(=O)OC)cc3)ccc12 | 129 to 132 °C |
| CCCN(CCC)C(C)C(=O)Nc1cccc2c1C(=O)c1c(NC(=O)C(C)N(CCC)CCC)cccc1C2=O (configuration not stated) | 129 to 130 °C |
| Oc1ccc(-c2ccc(C(F)(F)F)cc2)cn1 | 178 to 182 °C |
| CNc1nc(-c2ccc(SC)cc2)n(-c2ccc(C)c(C)c2)c(=O)c1C#N | 199 to 205 °C |
| CCCCCC(OC(C)=O)c1ccccc1COc1cccc2ccc(=O)[nH]c12 (configuration not stated) | 92 to 95 °C |
| CN(C)CCN1C(=O)c2cscc2N(C)c2ncccc21 | 129 to 130 °C |
| Cc1c(NC(=O)c2ccc(-c3ccc(F)cc3)cc2F)ccc2cc(CN3CCCCC3)cnc12 | 186 to 187 °C |
| Cc1cn(-c2cccc(C3=Nc4ccc(-c5ccc(F)cc5)cc4NC(=O)C3)c2)c(C)n1 | 188 °C |
| FC(F)(F)C1(c2cc(Cl)cc(Cl)c2)CC(c2ccc(CCl)cc2)=NO1 (configuration not stated) | 98 to 100 °C |
| CCC(=O)Nc1c([N+](=O)[O-])c(C(C)(C)C)nn1-c1c(Cl)cc(C(F)(F)F)cc1Cl | 151 to 152 °C |
| Cc1ccc(S(=O)(=O)NC(C)(C)C)o1 | 113 to 114 °C |
| O=C1c2cc(N3CCN(Cc4ccccc4)CC3)ccc2OC12CC2 | 125 to 126 °C |

| SMILES | melting point |
| --- | --- |
| O=C(Nc1cccc(C(=O)O)c1)OCc1ccccc1 | 218 to 219 °C |
| N#Cc1cnn2c1N(C(=O)CCl)CC=C2c1ccc(Cl)cc1 | 198 to 199 °C |
| CCN1CCN(CCCOc2cc3ncc(C#N)c(Nc4cc(OC)c(Cl)cc4Cl)c3cc2OC)CC1 | 102 to 104 °C |
| CC(C)(C)c1cccc(S(=O)(=O)n2c(Cc3ccc(-c4n[nH]c(=O)o4)cc3)cc3cc(C(F)(F)F)ccc32)c1 | 92 °C |
| CNC(=O)CN1CCc2cc(Nc3ncc(Cl)c(Nc4ccccc4C(=O)NC)n3)c(OC)cc2CC1 | 200 to 216 °C |
| O=S(=O)(c1c(Br)c(Br)n(CCl)c1-c1ccc(Cl)cc1)C(F)(F)F | 153 to 156 °C |
| COC(=O)c1ccc(OCC2CN(c3ccc(Cl)cc3)C(=O)O2)cc1 (configuration not stated) | 146 to 148 °C |
| Cc1cccc(C)c1CNc1cc(Br)cc2c1nc(C)n2O | 277 °C |
| CCOC(=O)c1cnc2cc(N)ccc2n1 | 181 to 183 °C |
| COC(=O)c1c[nH]c(CCC2CNc3nc(NC(=O)C(C)(C)C)nc(O)c3C2)c1 (configuration not stated) | > 260 °C |
| Oc1c(CN2CCCC2)cc(Nc2ccnc3cc(Cl)ccc23)cc1CN1CCCC1 | 92 °C |
| COc1cc(Cl)ccc1-c1ccc(C(C)=O)cc1[N+](=O)[O-] | 104 to 106 °C |
| CC1COC2(CCN(c3nc(=O)c4cc(C#N)cc([N+](=O)[O-])c4s3)CC2)O1 (configuration not stated) | 251 to 253 °C |
| O=C(CN1CCN(CCSc2nc3cccc(C(F)(F)F)c3o2)CC1)Nc1c(C(F)(F)F)cc(O)cc1C(F)(F)F | 176 to 177 °C |
| Cn1nc(Cl)c(C(=O)Cc2ccccc2)c1Cl | 94 to 96 °C |
| COC(=O)CCCCC(O)c1ccc(CCc2ccccc2)cc1 (configuration not stated) | 56 to 58 °C |
| CON=C(C#N)C(=O)NC(=O)NCCCCCC(=O)OC | 91 °C |
| O=C(Cc1ccccc1)N1CCc2[nH]c(=O)n3nc(-c4ccccc4F)nc3c2C1 | 310 to 313 °C |
| Cc1nc(-c2ccc(N3CCOCC3)c([N+](=O)[O-])c2)sc1C(=O)O | 218 to 220 °C |
| O=C(OCc1ccc(OCCCCCCc2ccc(Cl)cc2)cc1)c1cccnc1 | 56 to 57 °C |
| CNC(=S)NS(=O)(=O)C(F)(F)F | 88 to 90 °C |
| c1ccc(CCC2=NOC3(CCNCC3)C2)cc1 | 106 to 109 °C |
